Measurements from paper PMC5575474, “Structure‐Enabled Discovery of a Stapled Peptide Inhibitor to Target the Oncogenic Transcriptional Repressor TLE1” (Chemistry (Weinheim an Der Bergstrasse, Germany), 2017).
Where two headings read alike, the source gives them in different places. No end group written: not given here.

Assays:
[1] = molecular target: T1, human TLE1 443-770 (TLE1 WD40 domain) (Homo sapiens, UniProt Q04724); assay: Thermal shift assay (TSA, ΔTm); format: binding; conditions: 6 μM human TLE1 443-770, 25 mM Tris pH7.5, 125 mM NaCl, 1 mM DTT, 0.0002% Tween20, 3x SYPRO Orange, 10 °C to 95 °C, 0.5 °/min, mean of triplicate
T1 construct: the TLE1 WD40 domain (TLE1 residues 443–770); His6 (N, cleaved yes); made in house; host or cells: Sf9 insect cells (baculovirus, pFastBacHTb)
Procedure: (§1) We next investigated the binding of this macrocycle, as well as acyclic MWRPW and FWRPW peptides, to TLE1. We used two orthogonal binding assays, the thermal shift assay10 and isothermal titration calorimetry (ITC),11 to test binding of 18 and the linear peptides to the TLE1 WD40 domain (TLE1 residues 443–770).
Figure 2 ΔT m plot of peptide–hTLE1 443–770 interactions in thermal shift experiments. All measurements were carried out in triplicate and the points are reported as mean+standard deviation (SD). […]
(§2) Cloning, Expression and Purification of humanTLE1 443- 770.
(§3) The construct encoding the sequence for human TLE1 443- 770 was generated ac c or ding Laurence Pearl’s laboratory procedure. Brief ly, the C-terminal region of human TLE1 (GenBank accession number M99435) encoding amino acids 443– 770 was PCR amplif ied and cloned into pFastBacHTb (GIBCO) in-frame with the N-terminal His6 tag sequence.
(§4) Starting from this construct we generated recombinant baculovirus using the Bac-to-Bac® Baculovirus Expression System (Thermo Fisher Scientif ic). For protein production, Sf9 insect cells were grown in sf -900 II SFM media (Thermo Fisher Scientific) to a cell density of around 2 × 10^6 cells per milliliter and inf ected with 20 μL of virus per 107cells. Inf ected cell cultures were harvested 3 days post-inf ection.
(§5) Cell pellets were resuspended in 6 volumes of lysis buffer (50 mM Tris pH 7.5, 500 mM NaCl, 1 mM MgCl) containing 1× complete EDTA-free protease inhibitors and 25 U/mL benzonase nuclease. The resuspended cells were lysed by sonication. Following […]
(§6) centrifugation, the supernatant was purified over 2x HiTrap talon crude columns (Cobalt - IMAC, GE). Columns were washed with 10m M Imidazole and then the protein was eluted in […]
(§7) The Talon eluate was incubated overnight at 4 °C with TEV protease to cleave the 6xHis tag and then re- loaded on talon column: the unbound wash contains the cleaved hTLE1 443- […]
(§8) The protein was subsequently purif ied over a Superdex 75 16/60 column that was equilibrated in 50 mM Hepes pH 7.5 + 250 mM naCl + 1 mM TCEP.
(§9) Selected f ractions were pooled, concentrated to 8 mg/mL and stored at - 80 °C. The protein was stable in these conditions f or up to three months.
(§10) Protein concentration was measured using an ND-1000 UV spectrophotometer (Nanodrop Technologies Inc., DE., USA). […]
(§11) 1-2 days at 20 ◦C. Some crystals were transf erred to hanging drop (vapour diffusion) plates with the wells containing precipitant solution (PEG 8000 (22%), 100mM Na cacodylate, 100 mM Ca(OAc)2) and the drops containing the same precipitant solution supplemented with 1.0 or 2.5 mM peptide and a resultant final DMSO concentration of 1.0% or 2.5%, respectively. These crystals were soaked for around 5 h at 20 °C. Apo or peptide- s oak ed crystals were harvested, briefly transferred to cryprotectant (either paratone- N or a buffer containing ethylene glycol (40%), PEG 8000 (50%), 100 mM sodium cacodylate, 100 m M Ca(OAc)2) and f lash frozen in liquid nitrogen.
X-Ray data we r e collected at the Diamond Light Source, Oxford, UK on beamline I04.
Crystals belonged to the space group P2 1 and diffracted to between 1.6 and 2.9 Å. Dat a we r e integrated and merged using MOSFLM[4a,b] and AI MLESS.[4c] The structures were solved by molecular replacement using PHASER, [5] with either 2CE9 or our refined apo structure as the molecular replacement model with ligands and water removed. T he structures were manually rebuilt in COOT [6] and refined with BUSTER[7] in iterative cycles.
Ligand restraints f or the constrained peptide were generated with Grade[8] and Mogul.[9] T he quality of the structures was assessed with MOLPROBITY.[10]
Linear, unmodified peptides FW RPW and MWRPW were purchased from Cambridge Peptides as lyophilized powder. The peptides were then reconstituted in 1:1 mixture of DMSO and H2O as 10 mM stocks and stored at -80 °C. […]

[2] = molecular target: T1, human TLE1 443-770 (TLE1 WD40 domain); assay: Isothermal titration calorimetry (ITC), peptide–TLE1 binding; conditions: for Kd / affinity relative to unconstrained (acyclic) peptide: cyclic vs acyclic FWRPW
Description: as §1
This was initially more pronounced for FWRPW and 18, but also recognisable for the MWRPW peptide (see Figure S1 in the Supporting Information). We repeated the MWRPW titration at slightly higher protein and peptide concentrations to achieve a higher enthalpy signal, and therefore, better resolution of the titration event. Under these conditions, we also observed a clear biphasic curve (Figure 3). The biphasic curves are indicative of two binding events and we calculated the thermodynamic data for both (Table 2).
Figure 3 Top: ITC measurements of peptide–TLE1 binding interactions. Data fitting to a two‐site independent binding model are shown; integrated heats are shown in the inset. Bottom: Histograms showing ΔG, ΔH, and −TΔS. The thermodynamic values are also presented in Table 1. a) MWRPW–TLE1 binding, n=1. Experiment performed with TLE1 (40 μM) and MWRPW peptide (420 μM). b) FWRPW–TLE1 binding, n=2. Experiment performed with TLE1 (30 μM), FWRPW peptide (240 μM), and then repeated with TLE1 (24 μM), FWRPW peptide (180 μM). Histograms represent averaged values; error bars denote SD. c) 18–TLE1 binding, n=2. Experiment performed with TLE1 (30 μM), 18 (200 μM) and then repeated with TLE1 (30 μM), 18 (180 μM). Histograms represent averaged values; error bars denote SD. […]
as §2, §3, §4, §5, §6, §7, §8, §9, §10
as §11, with “containing ethylene glycol (40%), PEG 8000 (50%), 100 mM sodium cacodylate, 100 m M Ca(OAc)2) and f lash frozen in liquid nitrogen.” left out

[3] = molecular target: T1, human TLE1 443-770 (TLE1 WD40 domain); assay: as above; conditions: one-site independent binding model; TLE1 30 μM, peptide 350 μM; 25 °C, 50 mM Hepes pH7.5, 250 mM NaCl; mean ± SD, n = 2 (Table S1)
TLE1 WDR domain = conditions: cited from earlier work
Description: As discussed in more detail below, the bioactive conformation of this peptide is characterised by a compactly folded core formed by the central three amino acids. This compact core engages in extensive interactions with the WDR1 domain and positions key amino acid side chains such that they can form add ...

[4] = first binding event, two-site independent binding model, 25 °C, pH7.5, MWRPW n=1, FWRPW and 18 n=2, mean ± SD
[5] = second binding event, two-site independent binding model, 25 °C, pH7.5, MWRPW n=1, FWRPW and 18 n=2, mean ± SD

T1 sequence (Q04724 443-770): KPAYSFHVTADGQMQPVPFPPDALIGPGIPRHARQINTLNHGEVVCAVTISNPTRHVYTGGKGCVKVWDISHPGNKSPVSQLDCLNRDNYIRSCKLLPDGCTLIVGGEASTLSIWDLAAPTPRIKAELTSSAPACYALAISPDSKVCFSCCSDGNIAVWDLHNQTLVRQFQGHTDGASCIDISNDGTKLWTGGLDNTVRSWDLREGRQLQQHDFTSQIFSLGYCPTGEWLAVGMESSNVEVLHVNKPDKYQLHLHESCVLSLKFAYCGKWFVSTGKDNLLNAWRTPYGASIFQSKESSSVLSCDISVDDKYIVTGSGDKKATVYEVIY

## N=C(N)NCCC[C@@H]1NC(=O)[C@@H](NC(=O)[C@@H](N)Cc2ccccc2)Cc2cn(c3ccccc23)CCCC[C@@]2(C(=O)N[C@@H](Cc3c[nH]c4ccccc34)C(=O)O)CCCN2C1=O [compound 18]
[1]; peptide 100 μM
  ΔTm: 8.4 °C
[1]; peptide 200 μM
  ΔTm: 7.5 °C
[2]
  Kd / affinity relative to unconstrained (acyclic) peptide: approximately six‐fold lower affinity than that of the acyclic peptide
[2]; listed as cycFWRPW
  Kd / affinity relative to unconstrained (acyclic) peptide: approximately five‐fold higher
[2]; second binding event, two-site independent binding model, 25 °C, 50 mM Hepes pH7.5, 250 mM NaCl, 1 mM TCEP, 0.05% Tween 20, MWRPW n=1 (TLE1 40 μM, peptide 420 μM), FWRPW n=2 (TLE1 30/24 μM, peptide 240/180 μM), 18 n=2 (TLE1 30 μM, peptide 200/180 μM), read-out: Kd2
  Kd: 522 ± 39.6 nM

## FWRPW [linear, unmodified peptide purchased from Cambridge Peptides; acyclic counterpart of 18]
[1]; peptide 100 μM
  ΔTm: 9.4 °C
[1]; peptide 200 μM
  ΔTm: 10.1 °C
[2]; first binding event, two-site independent binding model, 25 °C, 50 mM Hepes pH7.5, 250 mM NaCl, 1 mM TCEP, 0.05% Tween 20, MWRPW n=1 (TLE1 40 μM, peptide 420 μM), FWRPW n=2 (TLE1 30/24 μM, peptide 240/180 μM), 18 n=2 (TLE1 30 μM, peptide 200/180 μM)
  N1: 0.18±0.002
[2]; [4]
  ΔH1: -20.5 ± 3.7 kcal/mol
  −TΔS1: 9.2 ± 3.8 kcal/mol
[2]; second binding event (Kd2)
  fold more potent binding than MWRPW: ~10 fold
[2]; second binding event, two-site independent binding model, 25 °C, 50 mM Hepes pH7.5, 250 mM NaCl, 1 mM TCEP, 0.05% Tween 20, MWRPW n=1, FWRPW and 18 n=2
  N2: 0.7±0.004
[2]; [5]
  ΔH2: -14.6 ± 0 kcal/mol
  −TΔS2: 4.6 ± 0.2 kcal/mol

## MWRPW [MWRPW, reference compound]
[1]; peptide 100 μM
  ΔTm: 6.3 °C
[1]; peptide 200 μM
  ΔTm: 6.9 °C
[3]
  Kd: 704 ± 14 nM

## SMWRPW [acyclic design template (pdb code 2CE9)]
TLE1 WDR domain
  Kd: 1000 nM
